Test results reported in patent publication US20250387437A1, “PHARMACEUTICAL COMPOSITION FOR PREVENTING OR TREATING ALOPECIA INCLUDING AKKERMANSIA” (priority 2022, published 2025).

How the values were obtained:
[1] = tested on: alopecia-induced mice (testosterone); assay: Confirmation of mouse hair growth through photograph; type: in vivo; conditions: testosterone 0.5 mg/day s.c. alopecia model, male C57BL/6 mice, daily treatment for 5 weeks, FIG. 1
Procedure: The animal experiment was carried out in compliance with the Animal use and Care Protocol of the Institutional Animal Care and Use Committee (IACUC). Seven-week-old male C57BL/6 mice were purchased and acclimated for 1 week, and then bred for 5 weeks. Regarding the breeding environment, the mice were bred at a constant temperature (22° C.) and relative humidity (40% to 60%) with a 12-hr light/12-hr dark cycle. A chow diet was fed to all experimental groups.
In order to make an alopecia model, 0.5 mg/day of testosterone was subcutaneously injected to mice in all experimental groups. A group in which alopecia was induced by testosterone administration was used as a negative control group, and finasteride was orally administered at 0.5 mg/kg/day as a positive control group. In the groups in which live bacteria and killed bacteria of the genus Akkermansia of the present invention are administrated, PBS containing L-cysteine and glycerol was orally administered as a vehicle.
For the mice in each experimental group, the degree of hair growth was observed through photographing hair. […] From the left side, there are the results of the negative control group (Testosterone), the positive control group (T+Finasteride), the Akkermansia muciniphila live bacteria-administered group (T+EB-AMDK19), and the Akkermansia muciniphila killed bacteria-administered group (T+EB-AMDK19 HI). […]

[2] = tested on: alopecia-induced mice (testosterone); assay: Hair growth length increase effect; type: in vivo, C57BL/6 mice; conditions: after the 5-week experiment, average per group, FIGS. 2a-b
Procedure: The animal experiment was carried out in compliance with the Animal use and Care Protocol of the Institutional Animal Care and Use Committee (IACUC). Seven-week-old male C57BL/6 mice were purchased and acclimated for 1 week, and then bred for 5 weeks. Regarding the breeding environment, the mice were bred at a constant temperature (22° C.) and relative humidity (40% to 60%) with a 12-hr light/12-hr dark cycle. A chow diet was fed to all experimental groups. […] In order to make an alopecia model, 0.5 mg/day of testosterone was subcutaneously injected to mice in all experimental groups. A group in which alopecia was induced by testosterone administration was used as a negative control group, and finasteride was orally administered at 0.5 mg/kg/day as a positive control group. In the groups in which live bacteria and killed bacteria of the genus Akkermansia of the present invention are administrated, PBS containing L-cysteine and glycerol was orally administered as a vehicle. [table] After the 5-week experiment was completed, the hair length was measured for individuals in each experimental group to calculate an average value, and the results of the hair growth length increase effect experiment are shown as a graph in FIG. 2.

[3] = tested on: hair follicles of alopecia-induced C57BL/6 mice; assay: Histological change in mouse hair follicles (hematoxylin-eosin staining); type: in vivo; conditions: skin tissue collected at week 5, H&E, optical microscope, FIGS. 5a-b
Procedure: The animal experiment was carried out in compliance with the Animal use and Care Protocol of the Institutional Animal Care and Use Committee (IACUC). Seven-week-old male C57BL/6 mice were purchased and acclimated for 1 week, and then bred for 5 weeks. Regarding the breeding environment, the mice were bred at a constant temperature (22° C.) and relative humidity (40% to 60%) with a 12-hr light/12-hr dark cycle. A chow diet was fed to all experimental groups. […] In order to make an alopecia model, 0.5 mg/day of testosterone was subcutaneously injected to mice in all experimental groups. A group in which alopecia was induced by testosterone administration was used as a negative control group, and finasteride was orally administered at 0.5 mg/kg/day as a positive control group. In the groups in which live bacteria and killed bacteria of the genus Akkermansia of the present invention are administrated, PBS containing L-cysteine and glycerol was orally administered as a vehicle. [table] In order to confirm the morphological change of male C57BL/6 mouse hair follicles, skin tissues collected at week 5 after […] administration were stained with hematoxylin-eosin and observed with an optical microscope to confirm the number of hair follicles, and the results are shown in FIGS. 5a and 5b.

CC(C)(C)NC(=O)[C@H]1CC[C@H]2[C@@H]3CC[C@H]4NC(=O)C=C[C@]4(C)[C@H]3CC[C@]12C [finasteride]
hair growth / regrowth in hair loss regions (photograph) [1]: almost all regions thereof were changed to black at week 5 | skin color change in hair loss regions of the back (photograph) [1]: skin color was darkened from week 3 of treatment | hair length, comparison between treated groups [2]: showed similar patterns | number of telogen hair follicles compared to the negative control group [3]: increased
